We go through 1 molecule from PMC4963390, “PL3 Amidase, a Tailor-made Lysin Constructed by Domain Shuﬄing with Potent Killing Activity against Pneumococci and Related Species” (Frontiers in Microbiology, 2016).

This assay addresses T1, PL3.
T1 construct: gene pal
Particulars: read-out: apparent half-dissociation constant; 20 mM sodium phosphate, reducing conditions (pH 6.8 in the other assays); 20 °C; higher-affinity sites of a two-sigmoid fit (midpoint value); lower-affinity sites not listed.

Regarding `C[N+](C)(C)CCO` [choline], the Kd was 60 ± 9 µM.
